# Read-outs that look alike come from different tables or passages of the source.
# Key:
# [1] = tested on: FAP; conditions: cited from earlier work; for EC50: ref Lindner et al., 2018
# [2] = tested on: U87MG cells; assay: Cellular uptake of [^18F]3 in U87MG cells; type: cell-based; conditions: U87 cells; compound 3 10 µM
# Description: (§1) Briefly, all cells were divided into the following two groups: A: blocking group and B: vehicle group. All cells were cultured, grouped, and plated (approximately 2*10^6 cells per well) before use. Cells were treated with [^18F]3 (74 KBq) and incubated at 37°C under a 5% CO2 atmosphere. […] Incubated at 37°C for 1 h, the medium from each well was removed, and the cells were washed twice with 1 mL of PBS. The medium and the PBS from each well were combined and counted in a Gamma counter (PerkinElmer Wizard 2470) for radioactivity counts. The cells were then handled with 1 mL of 1 M NaOH, and the lysates were also counted in the Wizard 2470 gamma counter. The uptake ratios for each group were then calculated with this equation: %Dose = […](medium counts + PBS counts + cell lysate counts).
# [3] = tested on: A549-FAPI xenograft tumors; assay: Micro-PET/CT imaging, A549-FAPI xenograft tumors; type: in vivo, BALB/c nude mice; conditions: A549-FAPI tumors; pre-injection of compound 3, 2 mg/kg
# Description: BALB/c nude mice used in this study were obtained from the Animal Center of Sichuan University. Tumor-bearing mouse models were established by the subcutaneous injection of 100 µL of PBS suspension containing approximately 1*10^6 tumor cells to the body side of the subjects. The tumor volume was monitored every day, and the tumor-bearing mice were ready for imaging once the tumor volume reached 0.5 mm^3 (tumor volume can be calculated by this equation: Volume = 0.5 * long tail * short tail *short tail). Micro-PET/CT imaging studies were performed on the IRIS Micro-PET/CT system (Inviscan SAS, France). Tumor-bearing mice were injected with approximately 11.2–14.8 MBq of [^18F]3 (200 µL) via the tail vein under anaesthetization by isoflurane. Static PET images were obtained at designated time points and were reconstructed with a 3D-OSEM algorithm using a Monte Carlo-based accurate detector model. Then, 170 sec-CT acquisition was conducted with 50 kV, 1 mA X-ray output for attenuation correction and anatomical orientation. ROIs (regions of interest) were drawn on the lung, kidney, liver, and tumor by OsiriX software. SUV (standardized uptake value) of the ROIs was directly obtained from OsiriX for each subject according to this formula: SUV = Voxal value (Bq/mL) * Body weight (kg)/(Decay corrected Dose (Bq) * 1,000 (g/kg)).
# BALB/c nude mice used in this study were obtained from the Animal Center of Sichuan university. Tumor-bearing mice model were established by the subcutaneous injection of 100 µL of PBS suspension containing approximately 1*10^6 tumor cells to the body side of the subjects. The tumor volume was monitored every day and the tumor-bearing mice were ready for imaging once the tumor volume reach 0.5 mm^3 (tumor volume can be calculated by this equation: Volume = 0.5 * long tail * short tail *short tail). Micro-PET/CT imaging studies were performed on the IRIS Micro-PET/CT system (Inviscan SAS, France). Tumor-bearing mice were injected with approximately 11.2-14.8 MBq of [^18F]3 (200 µL) via tail vein under anaesthetization by isoflurane. Static PET images were obtained at designated time points and were reconstructed with a 3D-OSEM algorithm using a Monte-Carlo based accurate detector model. A 170 sec-CT acquisition was conducted with 50 kV, 1 mA X-ray output for attenuation correction and anatomical orientation. ROIs (regions of interest) were drawn on lung, kidney, liver and tumor by Osirix software. SUV (standardized uptake value) of the ROIs was directly obtained from Osirix for each subject according to this formula: SUV = Voxal value (Bq/mL) * Body weight (kg)/(Decay corrected Dose (Bq) * 1000 (g/kg)).
# [4] = tested on: A549-FAPI cells (human FAP-expressing A549); assay: Cellular uptake of [^18F]3 in A549-FAPI cells; type: cell-based; conditions: compound 3 10 µM
# Description: as §1
# [5] = FAP, ref Wang et al., 2022, read-out: IC50
# [6] = ref Jansen et al., 2013, Jansen et al., 2014, read-out: FAP IC50
smiles,measurement,setting,value
N#C[C@@H]1CCCN1C(=O)CNC(=O)c1ccnc2ccc(OCCCN3CCN(C(=O)CN4CCN(CC(=O)O)CCN(CC(=O)O)CCN(CC(=O)O)CC4)CC3)cc12 [FAPI-02],EC50,[1],21 nM
N#C[C@@H]1CC(F)(F)CN1C(=O)CNC(=O)c1ccnc2ccc(OCCCN3CCN(C(=O)CN4CCN(CC(=O)O)CCN(CC(=O)O)CCN(CC(=O)O)CC4)CC3)cc12 [FAPI-04],EC50,[1],6.5 nM
[11CH3]Oc1ccc2nccc(C(=O)NCC(=O)N3CCC[C@H]3C#N)c2c1 [[^11C]RJ001],IC50,[1]; [5],9.2 nM
[11CH3]Oc1ccc2nccc(C(=O)NCC(=O)N3CC(F)(F)C[C@H]3C#N)c2c1 [[^11C]RJ002],IC50,[1]; [5],8.5 nM
N#C[C@@H]1CCCN1C(=O)CNC(=O)c1ccnc2ccc(F)cc12 [compound 2],IC50,[1]; [6],10.3 nM
N#C[C@@H]1CC(F)(F)CN1C(=O)CNC(=O)c1ccnc2ccc(F)cc12 [compound 3],Uptake in blocking group as % of vehicle group,[2],79.38%
same,Inhibitory activity against FAP,[1]; ref previous SAR studies,nanomolar activity
same,Inhibition of tumor SUV,[3],over 50%
same,Uptake in blocking group as % of vehicle group,[4],52.34%

# Reference: publication PMC10086185, “Synthesis, radiolabeling, and evaluation of a (4-quinolinoyl)glycyl-2-cyanopyrrolidine analogue for fibroblast activation protein (FAP) PET imaging” (Frontiers in Bioengineering and Biotechnology, 2023)
